Results on 22 compounds are retold here after the supplement of paper PMC11997997.

Test [1] deals with Mycobacterium tuberculosis CDC1551 (intracellular, in murine BMDM). The test can be described thus: area under intracellular growth-inhibition dose-response curve (AUC (% inhibition x dose, relative)); higher = more potent. The settings on record: duration: 6 days; dose range: 0.13-80 uM, 8 points. Summed up:
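In 384-well opaque plates, primary murine bone marrow-derived macrophages were infected with luciferase-expressing M. tuberculosis CDC1551 (multiplicity of infection 1, 1 h) 24 h after seeding, then treated for 6 days across final concentrations of 80–0.13 μM. Growth was measured by Bright-Glo luciferin assay, normalised to a reference drug control and the lowest-concentration wells. The reported value is the area under the growth-inhibition dose–response curve from GraphPad Prism.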

Test [2] has as its system murine bone marrow-derived macrophages. The test can be described thus: area under cytotoxicity dose-response curve (AUC (% cytotoxicity x dose, relative)); higher = more cytotoxic. The settings on record: duration: 6 days; dose range: 0.13-80 uM, 8 points. Summed up: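 Cytotoxicity is expressed as the area under the dose–response curve from GraphPad Prism version 10. To obtain it, primary murine bone marrow-derived macrophages were incubated for 6 days at 37 °C in 5% CO2 across final concentrations of 80–0.13 μM. Viability came from CellTiter-Glo luminescence, and percent cytotoxicity was normalised to vehicle and positive control wells.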

Turning to `CCOC(=O)/C=C/C(=O)NNC(=O)c1ccccc1Cl`, the “area under intracellular growth-inhibition dose-response curve” value in test [1] amounted to 49.3. The “area under cytotoxicity dose-response curve” value in test [2] stood at 186.
As for `CNC[C@H](CC1CCCCC1)NC[C@H](Cc1ccccc1)NCCC12CC3CC(CC(C3)C1)C2`, in test [1], the “area under intracellular growth-inhibition dose-response curve” value worked out at 104. In addition, in test [2], the “area under cytotoxicity dose-response curve” value stood at 43.
In the case of `CCn1c(SCc2ccc(C(=O)OC)o2)nnc1-c1c[nH]c2ccccc12`, the “area under intracellular growth-inhibition dose-response curve” value in test [1] is 117. Also, in test [2], the “area under cytotoxicity dose-response curve” value came out at 20.1.
Regarding `COC(=O)c1ccc2nc(C)cc(Nc3ccc(N(C)C)cc3)c2c1.Cl`, in test [1], the “area under intracellular growth-inhibition dose-response curve” value came to 243. Besides, the “area under cytotoxicity dose-response curve” value in test [2] was < 0.
As for `C/C(CC(=O)NCCN1CCOCC1)=N\NC(=O)c1ccncc1`, in test [1], the “area under intracellular growth-inhibition dose-response curve” value is 206. Besides, in test [2], the “area under cytotoxicity dose-response curve” value came to 12.5.
For the compound `CCN1C(=O)/C(=C\NC2CCCC(C)C2C)SC1=S` (centres undefined), in test [1], the “area under intracellular growth-inhibition dose-response curve” value worked out at 226. Moreover, the “area under cytotoxicity dose-response curve” value in test [2] turned out to be 97.6.
In the case of `O=C(N/N=C/c1c(F)c(F)c(F)c(F)c1F)c1ccc(Cn2cc(Br)cn2)o1`, in test [1], the “area under intracellular growth-inhibition dose-response curve” value came out at 154. The “area under cytotoxicity dose-response curve” value in test [2] was < 0.
The like results for `COc1cc(/C=N/NC(=O)C23CC4CC(CC(C4)C2)C3)cc(Br)c1O` were, in that order, 154 and 23.8.
In the case of `O=C(c1cc2ccccc2o1)N1CCN(Cc2ccc3c(c2)OCO3)CC1`, the “area under intracellular growth-inhibition dose-response curve” value in test [1] amounted to 172. Further, the “area under cytotoxicity dose-response curve” value in test [2] worked out at 68.3.
As to `CC(NC(=O)COC(=O)c1ccc(N2CCCC2=O)cc1)c1ccc(F)cc1` (centres undefined), the “area under intracellular growth-inhibition dose-response curve” value in test [1] was found to be 37.5. In test [2], the “area under cytotoxicity dose-response curve” value is < 0.
Regarding `CC(=NNC(=O)c1ccncc1)c1cccc(Br)c1`, the “area under intracellular growth-inhibition dose-response curve” value in test [1] amounted to 234. Moreover, the “area under cytotoxicity dose-response curve” value in test [2] was < 0.
Consider `Cc1ccc2nc(C)c3c(c2c1)SCC3`, for which the “area under intracellular growth-inhibition dose-response curve” value in test [1] stood at 79.5. Besides, in test [2], the “area under cytotoxicity dose-response curve” value is 24.5.
Consider `CC(C)(O)C(=O)Nc1ccc([N+](=O)[O-])c(C(F)(F)F)c1`, for which the “area under intracellular growth-inhibition dose-response curve” value in test [1] turned out to be 35.7. Besides, the “area under cytotoxicity dose-response curve” value in test [2] turned out to be 82.8.
In the same order, the values of `CN(C)c1ccc(O)c2c1CC1CC3[C@@H](N(C)C)C(=O)C(C(N)=O)=C(O)[C@]3(O)C(=O)C1=C2O.Cl` (some centres undefined) are 246 and 112.
Take `O=C(CCCOc1ccccc1)NNC(=O)c1ccncc1`: the “area under intracellular growth-inhibition dose-response curve” value in test [1] was 263. Also, in test [2], the “area under cytotoxicity dose-response curve” value is < 0.
For the compound `O=C(NC1CCCCCCC1)c1ccc(Br)o1`, in test [1], the “area under intracellular growth-inhibition dose-response curve” value turned out to be 251. In test [2], the “area under cytotoxicity dose-response curve” value came to 38.5.
For `CC(=O)Nc1ccccc1NC(=O)C/C(C)=N/NC(=O)c1ccncc1`, in test [1], the “area under intracellular growth-inhibition dose-response curve” value was 168. Further, the “area under cytotoxicity dose-response curve” value in test [2] turned out to be 38.1.
As for `COC(=O)Cc1ccc(NC(=S)Nc2ccc(N3CCOCC3)cc2)cc1`, the “area under intracellular growth-inhibition dose-response curve” value in test [1] is 241. For the same compound, the “area under cytotoxicity dose-response curve” value in test [2] stood at 50.5.
Take `CC(C)(C)C(=O)N1CCN(c2ccc(NC(=O)c3ccc([N+](=O)[O-])o3)cc2)CC1`: the “area under intracellular growth-inhibition dose-response curve” value in test [1] was 105. In addition, in test [2], the “area under cytotoxicity dose-response curve” value was determined as 104.
With `CCCCCc1ccc(OCCC[n+]2ccccc2)c(CCCCC)c1.[Cl-]`, in test [1], the “area under intracellular growth-inhibition dose-response curve” value is 137. In addition, the “area under cytotoxicity dose-response curve” value in test [2] was determined as 53.
In the same order, the values of `CCOc1ccc2oc(C(=O)OCC(=O)NC3CCCCC3)c(C)c2c1` are 119 and < 0.
In the same order, the values of `O=C(c1ccc(Cl)s1)N1CCN(c2ncccn2)CC1` are 86.8 and 31.4.
